Results on 17 compounds are retold here after US5684034A, “1H-indole-3-acetamide sPLA2 inhibitors” (Eli Lilly and Company, priority 1995, dated 1997).

Experiment [1] deals with T1, recombinant human secreted phospholipase A2 (Homo sapiens, UniProt P14555).
T1 sequence (P14555 21-144): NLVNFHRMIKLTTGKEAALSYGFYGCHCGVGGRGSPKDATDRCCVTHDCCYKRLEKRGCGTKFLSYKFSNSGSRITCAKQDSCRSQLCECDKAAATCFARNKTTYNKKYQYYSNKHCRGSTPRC
Description: Human secreted phospholipase A2 inhibition test (chromogenic assay, diheptanoyl thio-PC substrate). As to conditions: pH 7.5, 40° C., 30 minutes, 405 nm. The experiment is classed as biochemical. The method, then:
The following chromogenic assay procedure was used to identify and evaluate inhibitors of recombinant human secreted phospholipase A2. The assay described herein has been adapted for high volume screening using 96 well microtiter plates.
A measured volume of racetic dipheptanoyl thio PC supplied in chloroform at a concentration of 100 mg/ml is taken to dryness and redissolved in 10 millimolar TRITON X-100™ nonionic detergent aqueous solution. Reaction Buffer is added to the solution, then DTNB to give the Reaction Mixture.
The reaction mixture thus obtained contains 1 mM diheptanoly thio-PC substrate, 0.29 mm Triton X-100™ detergent, and 0.12 mm DTMB in a buffered aqueous solution at pH 7.5.
1. Add 0.2 ml reaction mixture to all wells;
2. Add 10 ul test compound (or solvent blank) to appropriate wells, mix 20 seconds:
3. Add 50 nanograms of sPLA2 (10 microliters) to appropriate wells;
4. incubate plate at 40° C. for 30 minutes;
All compounds were tested in triplicate. […] Each sample was titrated in triplicate and result values were averaged for plotting and calculation of IC50 values. […] Each IC50 value was determined three times.

In the next experiment the target is T2, sPLA2 (Homo sapiens, UniProt P14555).
T2 sequence (P14555 21-144): T1 sequence (P14555 21-144)
Description: Tissue test: sPLA2-induced contraction of guinea pig lung pleural strips. Set-up: species or system guinea pig (male Hartley). As to conditions: % suppression of sPLA2 contraction (sPLA2 10 ug/ml) at compound concentration of 30 uM, read-out: Tissue Test (sPLA2) % Supp (30 uM). From the text:
Male Hartley strain guinea pigs (500-700 g) were killed by cervical dislocation and their heart and lungs removed intact and placed in aerated (95% O2 :5% CO2) Krebs buffer. Dorsal pleural strips (4×1×25 mm) were dissected from intact parenchymal segments (8×4×25 mm) cut parallel to the outer edge of the lower lung lobes. Two adjacent pleural strips, obtained from a single lobe and representing a single tissue sample, were tied at either end and independently attached to a metal support rod. One rod was attached to a Grass force-displacement transducer (Model FTO3C, product of Grass Medical Instruments Co., Quincy, Mass., U.S.A.). […] All tissues were placed in 10 ml jacketed tissue baths maintained at 37° C. The tissue baths were continuously aerated and contained a modified Krebs solution of the following composition (millimolar) NaCl, 118.2; KCl, 4.6; CaCl2.2H2 O, 2.5; MgSO4.7H2 O, 1.2; NaHCO3, 24.8; KH2 PO4, 1.0; and dextrose, 10.0. Pleural strips from the opposite lobes of the lung were used for paired experiments. […] The tissues were allowed to equilibrate for 45 min. as the bath fluid was changed periodically.
Initially tissues were challenged 3 times with KCl (40 mM) to test tissue viability and to obtain a consistent response. After recording the maximal response to KCl, the tissues were washed and allowed to return to baseline before the next challenge. Cumulative concentration-response curves were obtained from pleural strips by increasing the agonist concentration (sPLA2) in the tissue bath by half-log10 increments while the previous concentration remained in contact with the tissues (Ref. 1, supra.) Agonist concentration was increased after reaching the plateau of the contraction elicited by the preceding concentration. One concentration-response curve was obtained from each tissue. To minimize variability between tissues obtained from different animals, contractile responses were expressed as a percentage of the maximal response obtained with the final KCl challenge. When studying the efects of various drugs on the contractile efects of sPLA2, the compounds and their respective vehicles were added to the tissues 30 min. prior to starting the sPLA2 concentration-response curves.
Data from different experiments were pooled and presented as a percentage of the maximal KCl responses (mean±S.E.). To estimate the drug induced rightward shifts in the concentration response curves, the curves were analyzed simultaneously using statistical nonlinear modeling methods similar to those described by Waud (1976), Equation 26, p. 163, (Ref. 2). The model includes four parameters: the maximum tissue response which was assumed the same for each curve, the ED50 for the control curve, the steepness of the curves, and the pA2, the concentration of antagonist chat requires a two-fold increase in agonist to achieve an equivalent response. The Schild slope was determined to be 1, using statistical nonlinear modeling methods similar to those described by Waud (1976), Equation 27, p. 164 (Ref. 2).
To estimate the drug-induced suppression of the maximal responses, sPLA2 responses (10 ug/ml) were determined in the absence and presence of drug, and percent suppression was calculated for each pair of tissues.

Setting [2] is: read-out: Inhibition of human secreted PLA2 IC50 ± mean deviation (3-5 tests).
The mark [3] stands for this setting: Inhibition of human secreted PLA2 IC50 ± mean deviation (3-5 tests).

Counter-ions that a name gives are not always drawn. Like-named read-outs stand apart in the source and are kept apart here.

In the case of `COc1ccc2c(c1)c(CC(N)=O)c(C)n2CC1CCCCC1` [Example 4, 1-Cyclohexylmethyl-5-methoxy-2-methyl-1H-indole-3-acetamide], the IC50 (commonly the concentration that inhibits the measured activity by half) in experiment [1] (setting [2]) came to 2050 ± 850 nM. Also, on sPLA2, the inhibition at 30 µM was determined as 10.5 ± 23.1%.
As for `COc1ccc2c(c1)c(CC(N)=O)c(C)n2Cc1ccccc1` [Example 5, 5-Methoxy-2-methyl-1-(phenylmethyl)-1H-indole-3-acetamide], in experiment [1] (setting [2]), the IC50 was found to be 840 ± 170 nM. Further, at sPLA2, the inhibition at 30 µM was found to be 74.9 ± 4.2%.
With `CCc1c(CC(N)=O)c2cc(OC)ccc2n1Cc1ccccc1` [Example 9, 2-Ethyl-5-methoxy-1-(phenylmethyl)-1H-indole-3-acetamide], the IC50 in experiment [1] (setting [2]) is 260 ± 110 nM. Further, on sPLA2, the inhibition at 30 µM was determined as 49.2 ± 9.4%.
Take `COc1ccc2c(c1)c(CC(N)=O)c(SC)n2Cc1ccccc1` [Example 12, 5-Methoxy-2-(methylthio)-1-(phenylmethyl)-1H-indole-3-acetamide]: the concentration for half-maximal inhibition (IC50) in experiment [1] (setting [3]) turned out to be 400 ± 90 nM. Besides, the inhibition at 30 µM at sPLA2 stood at 30.3 ± 15.2%.
On to `Cc1c(CC(N)=O)c2cc([N+](=O)[O-])ccc2n1Cc1ccccc1` [Example 16, 2-Methyl-5-nitro-1-(phenylmethyl)-1H-indole-3-acetamide], for which the IC50 in experiment [1] (setting [2]) was 1840 ± 440 nM. Further, the inhibition at 30 µM on sPLA2 worked out at 51.7 ± 4.2%.
On the same counts, the results for `CCOC(=O)COc1ccc2c(c1)c(CC(N)=O)c(C)n2Cc1ccccc1` [Example 18, 2-[[3-(2-Amino-2-oxoethyl)-2-methyl-1-(phenylmethyl)-1H-indol-5-yl]oxy]acetic acid ethyl ester] are 800 ± 50 nM and 74.1 ± 4%.
On the same counts, the results for `Cc1c(CC(N)=O)c2cc(OCCCCC(=O)O)ccc2n1Cc1ccccc1` [Example 23, 5-[[3-(2-Amino-2-oxoethyl)-2-methyl-1-(phenylmethyl)-1H-indol-5-yl]oxy]pentanoic acid] are 920 ± 360 nM and 83.3 ± 2.7%.
As for `NC(=O)Cc1cn(Cc2ccccc2)c2cc(Cl)c(OCCCP(=O)(O)O)cc12` [Example 92, 3-[4-[[3-(2-Amino-2-oxoethyl)-6-chloro-1-(phenylmethyl)-1H-indol-5-yl]oxy]propyl]phosphonic acid], in experiment [1] (setting [2]), the IC50 was 14 ± 4 nM.
For `C=CCc1c(O)ccc2c1c(CC(N)=O)c(CC)n2Cc1ccccc1` [Example 93, 4-Allyl-2-ethyl-5-hydroxy-1-(phenylmethyl)-1H-indole-acetamide], the half-maximal inhibitory concentration (IC50) in experiment [1] (setting [3]) amounted to 140 ± 40 nM.
For `C=CCc1c(OCCCP(=O)(O)O)ccc2c1c(CC(N)=O)c(CC)n2Cc1ccccc1` [Example 94, [3-[[4-Allyl-3-(2-amino-2-oxoethyl)-2-ethyl-1-(phenylmethyl)-1H-indol-5-yl]oxy]propyl]phosphonic acid disodium salt], the IC50 in experiment [1] (setting [2]) came to 612 ± 65 nM.
Same read-out and setting: to `Cc1c(CC(N)=O)c2cc(Oc3ccccc3)ccc2n1Cc1ccccc1` [Example 95, 2-Methyl-5-phenoxy-1-(phenylmethyl)-1H-indole-3-acetamide] belongs 1010 ± 320 nM; to `COC(=O)c1ccccc1COc1ccc2c(c1)c(CC(N)=O)c(C)n2Cc1ccccc1` [Example 96, 2-[[[3-(2-Amino-2-oxoethyl)-2-methyl-1-(phenylmethyl)-1H-indol-5-yl]oxy]methyl]benzoic acid methyl ester], 620 ± 180 nM.
Turning to `Cc1c(CC(N)=O)c2cc(OCc3ccccc3C(=O)O)ccc2n1Cc1ccccc1` [Example 97, 2-[[[3-(2-Amino-2-oxoethyl)-2-methyl-1-(phenylmethyl)-1H-indol-5-yl]oxy]methyl]benzoic acid], in experiment [1] (setting [3]), the IC50 stood at 150 ± 10 nM.
On to `CCc1c(CC(N)=O)c2cc(OCc3ccccc3C(=O)OC)ccc2n1Cc1ccccc1` [Example 98, 2-[[[3-(2-Amino-2-oxoethyl)-2-ethyl-1-(phenylmethyl)-1H-indol-5-yl]oxy]methyl]benzoic acid methyl ester], for which the IC50 in experiment [1] (setting [2]) was found to be 1150 ± 320 nM.
Same read-out and setting: to `CCc1c(CC(N)=O)c2cc(OCc3ccccc3C(=O)O)ccc2n1Cc1ccccc1` [Example 99, 2-[[[3-(2-Amino-2-oxoethyl)-2-ethyl-1-(phenylmethyl)-1H-indol-5-yl]oxy]methyl]benzoic acid] belongs 540 ± 180 nM.
On to `COC(=O)c1cccc(COc2ccc3c(c2)c(CC(N)=O)c(C)n3Cc2ccccc2)c1` [Example 100, 3-[[[3-(2-Amino-2-oxoethyl)-2-methyl-1-(phenylmethyl)-1H-indol-5-yl]oxy]methyl]benzoic acid methyl ester], for which the IC50 in experiment [1] (setting [2]) stood at 3840 ± 1320 nM.
The same measure, in the same setting: next, `Cc1c(CC(N)=O)c2cc(OCc3cccc(C(=O)O)c3)ccc2n1Cc1ccccc1` [Example 101, 3-[[[3-(2-Amino-2-oxoethyl)-2-methyl-1-(phenylmethyl)-1H-indol-5-yl]oxy]methyl]benzoic acid]: 1890 ± 500 nM.
